pIC50: −log10 of the molar value.
Biological target: Glutathione S-transferase omega-1 (Homo sapiens) (UniProt P78417)
Assay: GSTO1 inhibitor potency, recombinant enzyme, late-stage follow-up, biochemical, SE-Rh probe, in-gel fluorescence, powder samples (AID 463081)
Settings: recombinant GSTO1, SE-Rh probe labeling

Chain of Glutathione S-transferase omega-1 (Homo sapiens) (P78417 whole entry, looked up): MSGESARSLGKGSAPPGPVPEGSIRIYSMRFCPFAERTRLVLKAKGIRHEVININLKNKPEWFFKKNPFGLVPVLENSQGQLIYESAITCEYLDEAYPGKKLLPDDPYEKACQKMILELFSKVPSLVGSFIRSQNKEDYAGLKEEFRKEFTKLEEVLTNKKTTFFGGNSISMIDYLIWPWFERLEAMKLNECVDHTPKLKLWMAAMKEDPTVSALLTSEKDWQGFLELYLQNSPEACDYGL

pIC50: 7.66
SMILES: COc1ccc(C(C(=O)NC2CCCCC2)N(C(=O)CCl)c2ccc(Cl)cc2)cc1 (stereo unspecified)

Source: PubChem BioAssay AID463081 (The Scripps Research Institute Molecular Screening Center, 2010)
